Assay results from patent US20210379077A1, “TOPOISOMERASE II CATALYTIC INHIBITOR COMPOUND THERAPEUTICS FOR CANCER TREATMENT, METHODS AND USES” (The University of British Columbia, priority 2018, published 2021).
Entries after “also recorded” stand apart in the source; their conditions may differ.

What was measured:
Hela cells = experiment: BrdU incorporation assay; format: cell-based; conditions: 20 μM, 48 hours, listed as Top60
Description: BrdU incorporation rates were determined by Millipore™ BrdU incorporation kit (CAT #2750). (b-c) Hela cells were treated with vehicle or 20 μM of Top60 for 48 hours. Cells were then stained with APC-BrdU and 7-AAD for 4 hours, and subjected to FACS assays to determine cell populations at Sub G0/G1, G0/G1, S, and G2/M phases. Results were collected from three independent experiments, (d-e) Hela cells were treated with either vehicle or 20 μM T60 for 48 hours. Cells were fixed and co-stained with DAPI and phalloidin, and examined by confocal microscopy. Fifty cells were chosen from five high power fields to analyze nuclei sizes by the Image J software. Representative bright field microscopic images were also shown. Scale bar=50 μm.
BrDU incorporation and cell proliferation assays—Cell proliferation rates were measured by using the CellTitre™ 96 AqueousOne™ kit (Promega™) and bromodeoxyuridine (BrdU) assay kit (Millipore™) according to the manufacturer's protocol, with minor modifications as we have previously described by Li H. et al.^19

Topo IIα = Topo IIα (Homo sapiens, UniProt P11388); experiment: Thermal shift assay in cells; format: binding; design: endogenous in cells; host or cells: K562; conditions: K562 cells, 20 μM
Chain of Topo IIα (P11388 whole entry): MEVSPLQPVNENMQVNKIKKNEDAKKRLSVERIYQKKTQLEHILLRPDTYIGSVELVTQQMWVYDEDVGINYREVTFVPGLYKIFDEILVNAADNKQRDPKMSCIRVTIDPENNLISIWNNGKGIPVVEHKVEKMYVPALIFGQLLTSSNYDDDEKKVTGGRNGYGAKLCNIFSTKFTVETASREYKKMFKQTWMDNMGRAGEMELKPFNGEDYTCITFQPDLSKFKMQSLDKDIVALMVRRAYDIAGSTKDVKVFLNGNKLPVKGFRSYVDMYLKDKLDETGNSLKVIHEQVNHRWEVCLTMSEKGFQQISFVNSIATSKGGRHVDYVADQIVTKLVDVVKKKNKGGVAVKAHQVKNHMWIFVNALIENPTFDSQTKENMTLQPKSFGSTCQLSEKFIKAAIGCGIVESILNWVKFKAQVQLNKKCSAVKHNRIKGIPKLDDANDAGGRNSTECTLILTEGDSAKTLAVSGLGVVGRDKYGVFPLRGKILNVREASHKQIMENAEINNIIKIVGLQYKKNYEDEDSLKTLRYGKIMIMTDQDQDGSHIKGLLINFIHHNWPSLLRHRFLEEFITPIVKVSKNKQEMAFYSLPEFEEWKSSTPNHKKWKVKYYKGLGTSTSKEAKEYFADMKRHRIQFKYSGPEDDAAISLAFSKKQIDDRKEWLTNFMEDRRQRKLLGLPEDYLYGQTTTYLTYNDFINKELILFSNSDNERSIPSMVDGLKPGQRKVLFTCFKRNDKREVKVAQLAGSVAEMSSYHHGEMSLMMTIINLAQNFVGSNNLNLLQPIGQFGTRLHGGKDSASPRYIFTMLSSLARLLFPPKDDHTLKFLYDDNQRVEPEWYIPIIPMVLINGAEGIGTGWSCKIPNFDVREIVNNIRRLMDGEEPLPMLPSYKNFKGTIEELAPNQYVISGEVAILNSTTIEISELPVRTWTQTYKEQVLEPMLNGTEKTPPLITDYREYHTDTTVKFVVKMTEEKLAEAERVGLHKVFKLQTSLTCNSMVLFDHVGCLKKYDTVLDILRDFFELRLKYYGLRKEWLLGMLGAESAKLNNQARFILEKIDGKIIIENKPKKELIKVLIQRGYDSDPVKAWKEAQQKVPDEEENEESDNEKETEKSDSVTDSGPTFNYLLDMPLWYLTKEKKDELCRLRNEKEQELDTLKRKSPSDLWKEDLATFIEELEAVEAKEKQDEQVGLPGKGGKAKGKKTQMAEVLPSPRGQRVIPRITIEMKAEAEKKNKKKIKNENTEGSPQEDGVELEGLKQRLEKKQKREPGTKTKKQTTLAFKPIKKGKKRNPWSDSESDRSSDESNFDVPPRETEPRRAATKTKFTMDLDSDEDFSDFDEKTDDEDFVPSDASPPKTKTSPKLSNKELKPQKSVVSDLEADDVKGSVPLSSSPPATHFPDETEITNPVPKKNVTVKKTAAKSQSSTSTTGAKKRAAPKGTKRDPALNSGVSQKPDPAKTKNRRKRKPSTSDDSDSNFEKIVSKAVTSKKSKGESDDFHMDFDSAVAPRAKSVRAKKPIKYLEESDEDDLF
Description: Whole cell lyses were collected and used to measure protein levels of TOP2α, TOP2β with β-Actin as a loading control; (b) K562 cells were treated with 0, 1, and 10 μM of Top60 for 24 hours. Protein lyses were collected from soluble nuclear extract, chromatin fraction or whole cell lysate. TOP2α and TOP2β protein levels were determined by immunoblotting with Lamin A/C, Histone H3 and β-Actin as loading controls; and (c) Etoposide-resistant K562 cell line was established by treating cells with 0.5 μM of Etoposide for 6 months. TOP2α, TOP2β, and β-actin protein levels were determined by immunoblotting. Etoposide-resistant K562 cells were treated with 0, 1, 10, 15 and 20 μM of Top60, Etoposide or ICRF187 for 48 hours. Cell proliferation rates were determined by MTS assays.
Thermal shift and chromatin fraction assays—In the thermal shift assays, cells were treated with vehicle or compound #60 (Top60) for 1 hour, split into equal aliquots to be heated at 37 to 46 degrees in a PCR machine. Protein lyses were collected to perform immunoblotting assays with Topo II antibodies. In the chromatin fraction assays, cells were treated with vehicle or compound #60 (Top60). Both soluble and chromatin associated proteins were fractioned following the protocol described by Wysocka J et al.^18. Protein lyses were collected to perform immunoblotting assays with Topo II antibodies. […]

In the case of `O=C(Nc1ccc(Nc2ccccc2)cc1)c1ccc[nH]c1=S` [Compound 60], the “cellular replication (BrdU incorporation)” value (Hela cells) is reported as “Decreased cellular replication; also recorded: inhibits DNA synthesis at S phase” and the “temperature up to which Topo IIα was stabilized” value (Topo IIα) is reported as “up to 43 °C”.
